The subject of one test is SK-CO-1. The experiment in a line: Antiproliferative activity against human SKCO1 cells harboring KRAS G12V mutant after 72 hrs by CellTiter-Glo assay. The settings on record: SK-CO-1, 72 h. Type of test: functional, cell-based.
A further test relates to MOLM-14. The experiment in a line: Antiproliferative activity against human MOLM14 cells harboring FLT3-ITD mutant at […] to […] nM after 72 hrs by CellTiter-Glo assay. It is filed as functional, cell-based. (In general: Cellular ATP, detected with luciferase, serves as a proxy for viable cell number.)
The target of test [1] is Proto-oncogene tyrosine-protein kinase Src (Homo sapiens) (UniProt P12931). The test can be described thus: Inhibition of SRC in human SKCO1 cells at 1 uM after 4 hrs using biotin labeled QGAKFPIKWTAPEAALYGR probe by mass-spectrometric analysis relative to control. It is filed as cell-based.
Chain of Proto-oncogene tyrosine-protein kinase Src (Homo sapiens) (P12931 2-536 limits assumed): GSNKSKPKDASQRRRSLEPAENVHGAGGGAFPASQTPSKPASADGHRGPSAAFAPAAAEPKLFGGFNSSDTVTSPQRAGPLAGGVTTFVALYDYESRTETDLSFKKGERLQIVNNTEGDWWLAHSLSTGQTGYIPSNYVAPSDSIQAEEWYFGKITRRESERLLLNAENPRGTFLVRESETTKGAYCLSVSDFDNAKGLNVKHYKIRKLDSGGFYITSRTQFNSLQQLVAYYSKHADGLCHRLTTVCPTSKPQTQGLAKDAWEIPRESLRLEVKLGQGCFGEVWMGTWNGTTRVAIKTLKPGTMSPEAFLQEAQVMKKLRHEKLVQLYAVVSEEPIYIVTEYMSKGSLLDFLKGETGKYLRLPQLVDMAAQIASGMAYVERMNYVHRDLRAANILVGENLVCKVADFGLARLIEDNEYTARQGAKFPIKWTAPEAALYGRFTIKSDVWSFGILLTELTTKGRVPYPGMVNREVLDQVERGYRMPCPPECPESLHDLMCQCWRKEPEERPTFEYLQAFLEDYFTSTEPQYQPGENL
A further test deals with ASPC1. The experiment in a line: Antiproliferative activity against human AsPC1 cells harboring KRAS G12D mutant after 72 hrs by CellTiter-Glo assay. Type of test: functional, cell-based. The following applies: ASPC1, 72 h.
The test system of another test is SW-620. The experiment in a line: Antiproliferative activity against human SW620 cells harboring KRAS G12V mutant after 72 hrs by CellTiter-Glo assay. It is filed as functional, cell-based. The following applies: SW-620, 72 h.
The target in test [2] is Mitogen-activated protein kinase 9 (Homo sapiens) (UniProt P45984). The test can be described thus: Inhibition of JNK2 in human SKCO1 cells at 1 uM after 4 hrs using biotin labeled DLKPSNIVVK probe by mass-spectrometric analysis relative to control. Type of test: cell-based.
Chain of Mitogen-activated protein kinase 9 (Homo sapiens) (P45984 whole entry, looked up): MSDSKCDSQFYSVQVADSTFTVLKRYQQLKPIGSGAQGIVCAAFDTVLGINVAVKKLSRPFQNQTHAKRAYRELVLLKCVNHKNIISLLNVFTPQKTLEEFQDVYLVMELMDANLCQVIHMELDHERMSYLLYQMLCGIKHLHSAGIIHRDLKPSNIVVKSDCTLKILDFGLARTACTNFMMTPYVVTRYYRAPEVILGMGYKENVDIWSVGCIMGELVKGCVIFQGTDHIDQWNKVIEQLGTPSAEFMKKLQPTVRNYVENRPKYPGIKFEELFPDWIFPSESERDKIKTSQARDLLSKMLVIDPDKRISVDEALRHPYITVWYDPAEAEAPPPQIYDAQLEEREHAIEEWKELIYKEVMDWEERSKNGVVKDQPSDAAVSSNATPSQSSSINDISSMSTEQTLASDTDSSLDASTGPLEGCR
Test [3] concerns the target T1, Mitogen-activated protein kinase kinase kinase 7 (Homo sapiens, UniProt O43318).
T1 sequence (O43318 whole entry): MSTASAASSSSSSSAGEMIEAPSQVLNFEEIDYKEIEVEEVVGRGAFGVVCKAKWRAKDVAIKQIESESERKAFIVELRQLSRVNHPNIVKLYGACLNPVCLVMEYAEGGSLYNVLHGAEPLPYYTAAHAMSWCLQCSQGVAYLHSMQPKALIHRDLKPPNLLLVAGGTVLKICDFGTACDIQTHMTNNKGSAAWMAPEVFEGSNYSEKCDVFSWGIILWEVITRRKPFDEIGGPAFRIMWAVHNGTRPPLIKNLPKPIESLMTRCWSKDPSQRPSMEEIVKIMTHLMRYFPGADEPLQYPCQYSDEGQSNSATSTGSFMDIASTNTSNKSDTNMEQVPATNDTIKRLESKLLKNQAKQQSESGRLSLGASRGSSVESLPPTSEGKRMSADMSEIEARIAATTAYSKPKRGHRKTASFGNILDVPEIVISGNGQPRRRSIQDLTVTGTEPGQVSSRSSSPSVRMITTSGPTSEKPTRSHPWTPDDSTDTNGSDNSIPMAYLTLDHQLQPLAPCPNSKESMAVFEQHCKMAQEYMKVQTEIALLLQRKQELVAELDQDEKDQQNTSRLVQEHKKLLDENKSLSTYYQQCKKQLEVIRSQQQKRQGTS
The test can be described thus: Inhibition of TAK1 (unknown origin) by LanthaScreen assay.

The test system of test [4] is MAP4K2 / germinal center kinase (Homo sapiens). The test can be described thus: Inhibition of GCK in human SKCO1 cells at 1 uM after 4 hrs using biotin labeled DIKGANLLLTLQGDVK probe by mass-spectrometric analysis relative to control.
The target in test [5] is Inhibitor of nuclear factor kappa-B kinase subunit alpha (Homo sapiens) (UniProt O15111). The experiment in a line: Inhibition of IKKa in human SKCO1 cells at 1 uM after 4 hrs using biotin labeled DLKPENIVLQDVGGK probe by mass-spectrometric analysis relative to control. Type of test: cell-based.
Chain of Inhibitor of nuclear factor kappa-B kinase subunit alpha (Homo sapiens) (O15111 whole entry): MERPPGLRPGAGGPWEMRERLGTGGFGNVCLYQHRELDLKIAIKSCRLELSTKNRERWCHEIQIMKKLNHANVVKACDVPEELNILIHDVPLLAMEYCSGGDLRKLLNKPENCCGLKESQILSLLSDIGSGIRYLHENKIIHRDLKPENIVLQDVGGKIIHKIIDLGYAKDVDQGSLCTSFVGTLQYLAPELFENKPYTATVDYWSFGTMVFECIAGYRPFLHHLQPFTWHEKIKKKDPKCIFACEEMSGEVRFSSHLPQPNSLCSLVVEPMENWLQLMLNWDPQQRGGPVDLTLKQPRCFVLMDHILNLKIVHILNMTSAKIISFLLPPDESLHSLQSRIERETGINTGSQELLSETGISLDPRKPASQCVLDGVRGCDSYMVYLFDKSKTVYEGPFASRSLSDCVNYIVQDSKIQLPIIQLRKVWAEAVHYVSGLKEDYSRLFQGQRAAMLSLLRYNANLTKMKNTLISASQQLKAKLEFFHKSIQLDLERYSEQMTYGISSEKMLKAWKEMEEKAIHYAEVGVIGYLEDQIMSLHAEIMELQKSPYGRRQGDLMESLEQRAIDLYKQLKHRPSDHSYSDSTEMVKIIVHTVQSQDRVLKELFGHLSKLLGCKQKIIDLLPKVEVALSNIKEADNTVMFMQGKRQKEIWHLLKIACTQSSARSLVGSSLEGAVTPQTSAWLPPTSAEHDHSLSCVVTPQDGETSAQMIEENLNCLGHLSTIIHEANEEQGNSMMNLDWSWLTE
Test [6] addresses T2, Dual specificity mitogen-activated protein kinase kinase 4 (Homo sapiens) (UniProt P45985).
T2 sequence (whole entry): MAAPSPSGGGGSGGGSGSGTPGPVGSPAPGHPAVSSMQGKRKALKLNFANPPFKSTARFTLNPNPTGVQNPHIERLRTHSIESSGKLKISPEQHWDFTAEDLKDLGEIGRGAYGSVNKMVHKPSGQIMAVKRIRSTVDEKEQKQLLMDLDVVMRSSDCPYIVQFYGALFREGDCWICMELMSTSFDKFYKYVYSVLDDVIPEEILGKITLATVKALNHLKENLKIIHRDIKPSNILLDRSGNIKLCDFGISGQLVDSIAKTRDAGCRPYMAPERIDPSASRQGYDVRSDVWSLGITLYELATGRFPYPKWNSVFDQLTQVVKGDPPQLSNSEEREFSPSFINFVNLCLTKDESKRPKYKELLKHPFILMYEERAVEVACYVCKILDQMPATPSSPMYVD
The experiment in a line: Inhibition of MAP2K4 in human SKCO1 cells at 1 uM after 4 hrs using biotin labeled DIKPSNILLDR probe by mass-spectrometric analysis relative to control. Type of test: cell-based.

Test [7] addresses Translocon-associated protein subunit delta (Homo sapiens) (UniProt P51571). The test can be described thus: Binding affinity to SSR4 in human NCI-H23 cells at 1 uM by mass spectrometry based pull down assay. Type of test: cell-based.
Test [8] deals with DnaJ homolog subfamily A member 2 (Homo sapiens) (UniProt O60884). The experiment in a line: Binding affinity to DNAJA2 in human NCI-H23 cells at 1 uM by mass spectrometry based pull down assay. It is filed as cell-based.
In test [9] the target is 80S Ribosome (Homo sapiens) (UniProt P08865+P42677+P62753+P15880+P23396+P61247+P62701+P22090+P46782+P62081+P62241+P46781+P46783+P62280+P25398+P62277+P62263+P62841+P62244+P62249+P08708+P62269+P39019+P60866+P63220+P62266+P62847+P62851+P62854+P62979+P62857+P62273+P62861+P39023+P36578+P46777+Q02878+P18124+P62424+P62917+P32969+P27635+P62906+P62913+P30050+P26373+P40429+P50914+P61313+P18621+Q07020+Q02543+P84098+P46778+P35268+P62829+P62750+P83731+P61254+P61353+P46776+P46779+P47914+P62888+P62899+P62910+P49207+P42766+P18077+Q9Y3U8+P83881+P61927+P61513+P63173+P62891+P62945+P05388+P05386). The test can be described thus: Binding affinity to RPS9 in human NCI-H358 cells at 1 uM by mass spectrometry based pull down assay. It is filed as cell-based.

Test [10] addresses Mitogen-activated protein kinase 3 (Homo sapiens) (UniProt P27361). The experiment in a line: Binding affinity to MAPK3 in human NCI-H358 cells at 1 uM by mass spectrometry based pull down assay. It is filed as cell-based.
Test [11] deals with Protein diaphanous homolog 1 (Homo sapiens) (UniProt O60610). The experiment in a line: Binding affinity to DIAPH1 in human NCI-H358 cells at 1 uM by mass spectrometry based pull down assay. Type of test: cell-based.
Chain of Protein diaphanous homolog 1 (Homo sapiens) (O60610 whole entry): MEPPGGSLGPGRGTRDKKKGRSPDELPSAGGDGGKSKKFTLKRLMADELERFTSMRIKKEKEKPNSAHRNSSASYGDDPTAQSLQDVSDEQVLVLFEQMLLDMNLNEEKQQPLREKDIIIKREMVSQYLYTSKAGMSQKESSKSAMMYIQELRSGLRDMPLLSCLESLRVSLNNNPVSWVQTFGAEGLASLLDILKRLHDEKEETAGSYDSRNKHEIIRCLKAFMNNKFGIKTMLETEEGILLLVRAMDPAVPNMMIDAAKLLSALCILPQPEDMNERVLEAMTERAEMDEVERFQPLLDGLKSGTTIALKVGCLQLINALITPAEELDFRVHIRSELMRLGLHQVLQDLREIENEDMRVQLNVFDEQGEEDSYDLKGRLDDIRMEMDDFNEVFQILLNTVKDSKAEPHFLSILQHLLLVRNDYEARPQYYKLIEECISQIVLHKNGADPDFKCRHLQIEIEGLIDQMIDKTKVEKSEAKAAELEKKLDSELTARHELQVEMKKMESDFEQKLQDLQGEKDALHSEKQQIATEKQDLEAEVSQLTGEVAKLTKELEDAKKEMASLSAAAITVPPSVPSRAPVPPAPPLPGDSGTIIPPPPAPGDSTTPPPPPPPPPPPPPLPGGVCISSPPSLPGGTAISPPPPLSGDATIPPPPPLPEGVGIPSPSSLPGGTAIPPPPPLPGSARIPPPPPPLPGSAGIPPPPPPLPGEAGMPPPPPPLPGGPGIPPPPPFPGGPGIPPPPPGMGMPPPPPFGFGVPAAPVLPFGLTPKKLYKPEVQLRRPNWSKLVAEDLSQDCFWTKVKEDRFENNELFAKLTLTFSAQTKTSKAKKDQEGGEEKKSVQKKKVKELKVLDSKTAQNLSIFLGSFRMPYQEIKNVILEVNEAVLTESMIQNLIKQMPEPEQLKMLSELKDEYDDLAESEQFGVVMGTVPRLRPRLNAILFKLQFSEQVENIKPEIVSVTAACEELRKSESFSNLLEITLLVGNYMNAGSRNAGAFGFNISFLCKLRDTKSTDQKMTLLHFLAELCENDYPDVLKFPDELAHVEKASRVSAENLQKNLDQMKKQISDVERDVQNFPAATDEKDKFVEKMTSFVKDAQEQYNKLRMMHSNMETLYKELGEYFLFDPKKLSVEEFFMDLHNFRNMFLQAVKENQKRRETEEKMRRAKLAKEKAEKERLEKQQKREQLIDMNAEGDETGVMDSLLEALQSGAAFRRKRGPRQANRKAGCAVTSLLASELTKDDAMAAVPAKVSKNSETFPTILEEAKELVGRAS
For test [12], the target named is General vesicular transport factor p115 (Homo sapiens) (UniProt O60763). The experiment in a line: Binding affinity to USO1 in human NCI-H358 cells at 1 uM by mass spectrometry based pull down assay. Type of test: cell-based.
Chain of General vesicular transport factor p115 (Homo sapiens) (O60763 whole entry): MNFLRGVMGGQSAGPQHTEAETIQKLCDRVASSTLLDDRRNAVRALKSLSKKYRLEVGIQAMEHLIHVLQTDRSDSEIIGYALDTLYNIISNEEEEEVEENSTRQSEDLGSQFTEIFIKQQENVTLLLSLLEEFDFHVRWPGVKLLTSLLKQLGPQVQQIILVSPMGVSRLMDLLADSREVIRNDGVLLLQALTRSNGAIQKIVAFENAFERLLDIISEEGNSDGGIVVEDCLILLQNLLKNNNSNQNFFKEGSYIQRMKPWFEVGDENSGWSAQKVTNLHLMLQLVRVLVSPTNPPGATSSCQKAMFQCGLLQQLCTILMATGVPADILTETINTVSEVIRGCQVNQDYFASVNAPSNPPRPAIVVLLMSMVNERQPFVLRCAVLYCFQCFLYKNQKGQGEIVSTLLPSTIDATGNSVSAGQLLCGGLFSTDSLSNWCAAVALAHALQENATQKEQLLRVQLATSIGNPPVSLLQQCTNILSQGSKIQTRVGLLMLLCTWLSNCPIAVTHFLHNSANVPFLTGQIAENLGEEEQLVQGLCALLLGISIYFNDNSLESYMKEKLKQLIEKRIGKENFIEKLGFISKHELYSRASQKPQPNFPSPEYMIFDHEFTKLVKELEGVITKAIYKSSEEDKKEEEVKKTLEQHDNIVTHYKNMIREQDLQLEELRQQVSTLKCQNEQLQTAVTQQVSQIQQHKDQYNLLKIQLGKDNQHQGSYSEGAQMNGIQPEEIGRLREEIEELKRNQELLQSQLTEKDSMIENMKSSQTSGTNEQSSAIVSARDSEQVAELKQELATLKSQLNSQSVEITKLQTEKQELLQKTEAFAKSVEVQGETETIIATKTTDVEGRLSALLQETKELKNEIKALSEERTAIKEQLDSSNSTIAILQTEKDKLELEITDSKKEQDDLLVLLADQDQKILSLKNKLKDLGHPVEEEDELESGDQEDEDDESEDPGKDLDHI
For test [13], the target named is Glyoxylate reductase/hydroxypyruvate reductase (Homo sapiens) (UniProt Q9UBQ7). The test can be described thus: Binding affinity to GRHPR in human NCI-H23 cells at 1 uM by mass spectrometry based pull down assay. It is filed as cell-based.
Chain of Glyoxylate reductase/hydroxypyruvate reductase (Homo sapiens) (Q9UBQ7 whole entry): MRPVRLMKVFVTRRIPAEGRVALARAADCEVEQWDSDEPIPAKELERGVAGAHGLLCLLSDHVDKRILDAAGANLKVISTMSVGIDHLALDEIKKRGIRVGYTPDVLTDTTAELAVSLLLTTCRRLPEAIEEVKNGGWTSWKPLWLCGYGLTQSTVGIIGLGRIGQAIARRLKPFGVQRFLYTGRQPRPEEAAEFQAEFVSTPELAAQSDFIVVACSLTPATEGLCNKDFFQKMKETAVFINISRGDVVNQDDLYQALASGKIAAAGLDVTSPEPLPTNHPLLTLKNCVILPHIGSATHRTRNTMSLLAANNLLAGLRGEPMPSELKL

The source made the active and inactive calls. No cut-off for these calls is given here.

Chain of Mitogen-activated protein kinase 3 (Homo sapiens) (P27361 whole entry): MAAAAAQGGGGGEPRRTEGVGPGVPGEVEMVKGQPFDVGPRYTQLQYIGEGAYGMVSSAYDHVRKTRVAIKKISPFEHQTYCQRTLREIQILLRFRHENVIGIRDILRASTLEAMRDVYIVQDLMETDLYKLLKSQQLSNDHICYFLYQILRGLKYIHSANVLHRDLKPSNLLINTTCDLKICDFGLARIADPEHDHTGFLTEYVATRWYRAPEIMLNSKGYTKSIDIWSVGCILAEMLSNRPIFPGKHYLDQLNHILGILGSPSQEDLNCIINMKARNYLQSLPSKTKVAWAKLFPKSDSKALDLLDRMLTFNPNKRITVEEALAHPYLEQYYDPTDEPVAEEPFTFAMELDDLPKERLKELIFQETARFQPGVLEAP
Chain of Translocon-associated protein subunit delta (Homo sapiens) (P51571 whole entry): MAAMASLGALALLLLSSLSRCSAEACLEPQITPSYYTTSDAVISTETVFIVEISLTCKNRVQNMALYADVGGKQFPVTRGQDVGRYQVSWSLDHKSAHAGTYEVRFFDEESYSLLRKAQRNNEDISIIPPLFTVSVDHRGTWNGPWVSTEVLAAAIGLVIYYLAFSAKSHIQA

In the case of `C=CC(=O)Nc1ccccc1Oc1nc(Nc2cnn(CCOC)c2)ncc1Cl`, the IC50 in the test on SK-CO-1 was found to be 318 nM; in the test with ASPC1, 1340 nM; in the test on SW-620, 506 nM; in [3] it was 2.4 nM. In addition, the outcome in the test on MOLM-14 was Active. Also, the inhibition in test [1] was -0.9%; in test [2] it was 0.8%; in test [4], 34.3%; in test [5], 8.1%.

Turning to `C=CC(=O)Nc1ccccc1Nc1nc(Nc2ccc(N3CCN(C)CC3)cc2)ncc1Cl`, in the test on MOLM-14, the result was Active. In addition, the inhibition turned out to be 24.9% in test [6], 70% in test [2], 37.1% in test [4] and 4.9% in test [5]. Further, half-maximal inhibition in test [3] (IC50) required 50 nM.

`COc1cc(O)c2c(c1)/C=C/C[C@H](O)[C@H](O)C(=O)/C=C\C[C@H](C)OC2=O`: the IC50 in the test on SK-CO-1 came to 250 nM; in the test with ASPC1 it was 6020 nM; in the test with SW-620 it was 2540 nM. The results for the inhibition in test [6] and in test [1] were 26.2% and 8.5%, respectively.

In the case of `C=CC(=O)Nc1ccccc1Nc1nc(Nc2ccc(N3CCN(CCOCCOCCOCCNC(=O)CCCC[C@@H]4SC[C@@H]5NC(=O)N[C@@H]54)CC3)cc2)ncc1Cl`, the result in test [7], in test [8], in test [9], in [10], in test [11] and in test [12] was Active. In addition, in test [13], the result was Active.

One may read the IC50 as the concentration at which inhibition is half-maximal. Usually inhibition stands for the relative decrease from the control value, in per cent.

Values taken from ChEMBL document CHEMBL4118021, “Studies of TAK1-centered polypharmacology with novel covalent TAK1 inhibitors” (Bioorg Med Chem, 2017).
